Numbers after ± are expanded uncertainties.
Details: Crystal; DTA

SMILES: [Cl-].[Li+] [lithium chloride]
- Normal melting temperature: 605 ± 1 °C

SMILES: [Cl-].[K+] [potassium chloride]
- Normal melting temperature: 772 ± 1 °C

SMILES: [Cl][Pr]([Cl])[Cl] [praseodymium(III) chloride]
- Normal melting temperature: 778 ± 1 °C

Source: the NIST ThermoML archive (doi:10.1016/j.tca.2017.03.024)
